In patent publication US6107104A, “Modulators of anchoring protein function” (ICOS Corporation, priority 1996, dated 2000):
Values belong to the substance of their own block, whether it stands above or below them. Ends that are not written are not given here.

Tests used:
[1] = biological target: T1, CaN A (Rattus norvegicus, UniProt P63329); assay: ELISA and modified ELISA, AKAP 79 binding to immobilized CaN A
T1 construct: the deletion mutant form of CaN A is used in the assays described above in place of full length CaN A; made in house; host or cells: Sf9 cells (baculovirus); construct from Vollum Institute
Experimental: Two different capture methods were used. In one method, CaN A was first captured on plates by passive coating, AKAP 79 or biotinylated AKAP 79 was added, and complex formation detected by either ELISA or by streptavidin-HRP. In another method, rabbit anti-mouse antibodies were first captured on plates, mouse anti-TRX antibodies added and captured, and TRX-AKAP 79 added and captured. This method was similar to the capture method used for AKAP 79/^3 H-RII SPA. Biotinylated CaN A was then added, and the complex detected by streptavidin-HRP.
(§1) Specifically, in the first method, recombinant CaN A, expressed as described above, was added to wells of Immulon plates (Dynatech) in a 35 mM sodium bicarbonate/15 mM sodium carbonate buffer, pH 9.6. Proteins bound to the surface of the wells by plastic/protein interaction. As a positive control, RII, and a negative control, bovine serum albumin (BSA) were separately and similarly captured in individual wells and assayed in this method. Nonspecific sites in the wells were blocked with a buffer containing 2.5% milk in 50 mM sodium citrate and 145 mM sodium chloride. Full length TRX-AKAP 79 was added in a final volume of 100 μl and after up to 2 hours incubation, free and non-specific proteins were removed with several washes with PBS/0.5% Tween 20. A mouse anti-AKAP 79 monoclonal antibody, generated against recombinant AKAP 79, was added to each well, followed by addition of a horse radish peroxidase (HRP)-conjugated goat anti-mouse antibody. HRP substrate tetramethylbenzidine (TMB) was added and absorbance at 450 nm determined using a Dynatech 96 well plate reader.
In the modified ELISA, standard ELISA techniques were employed except that HRP-conjugated streptavidin was used to detect bound biotinylated AKAP 79 instead of an anti-AKAP 79 monoclonal antibody. Briefly, after incubation of immobilized CaN A with biotinylated AKAP 79, HRP-conjugated streptavidin was added for 30 minutes. […] Bound streptavidin was detected with HRP substrate TMB and absorbance measured at 450 nm using a Dynatech 96 well plate reader. […]

[2] = tested on: RII; assay: ELISA and modified ELISA, AKAP 79 binding to immobilized RII
Experimental: as §1
In the modified ELISA, standard ELISA techniques were employed except that HRP-conjugated streptavidin was used to detect bound biotinylated AKAP 79 instead of an anti-AKAP 79 monoclonal antibody. Briefly, after incubation of immobilized CaN A with biotinylated AKAP 79, HRP-conjugated streptavidin was added for 30 minutes. Unbound protein was removed with multiple washes of PBS/0.05% Tween 20. Bound streptavidin was detected with HRP substrate TMB and absorbance measured at 450 nm using a Dynatech 96 well plate reader. As in the ELISA described above, RII was immobilized and assayed as a positive control, and BSA as a negative control.

[3] = tested on: IL-2 transcription in Jurkat T cell line (NFATZ); assay: NFATZ Jurkat IL-2 promoter lacZ β-gal FACS assay; type: cell-based
From the text: IL- 2 transcription was studied following activation with PMA and ionomycin. These two agents are known respectively to potentiate protein kinase C and calcium second messenger responses (including activation of CaN). Protein kinase C activates the Ras-Raf-1-Mek-MAP Kinase pathway that participates in induction of the nuclear component of NFAT. The increased calcium concentration activates calcineurin which, in turn, activates the cytoplasmic component of NFAT and allows translocation to the nucleus.
Each of the peptides was myristilated as described in Eichholtz et al., J. Biol. Chem., 268:1982-1986 (1993).
Incubation with forskolin/IBMX elevates intracellular cAMP concentrations (FIG. 4), thereby activating PKA. Finally, phorbol 12-myristate 13-acetate (PMA) (10 ng/ml) and ionomycin (2 μM) were added and incubations continued for 4 hr. Controls were incubated with PMA/ionomycin alone or forskolin/IBMX and PMA/ionomycin under conditions as described above. During the last 20 min of the PMA/ionomycin incubation, chloroquine (300 μM) was added to inhibit endogenous lysosomal β-gal activity. The cells were spun out and resuspended in 50 μl of culture medium to which 50 μl of fluorescein di-β-D-galactopyranoside (FDG) was added (0.1 mM final concentration; Molecular Probes). […] The lacZ β-gal activity was measured by flow cytometry configured for fluorescein analysis.

[4] = biological target: T2, CaN (Rattus norvegicus, UniProt P63329); assay: CaN phosphatase activity toward 32P RII peptide substrate; type: biochemical; conditions: Ca2+/calmodulin dependent CaN 30 nM, 32P RII peptide substrate
T2 construct: made in house; host or cells: Sf9 cells (baculovirus)
Experimental: (§2) To determine whether AKAP 79 peptide binding inhibits CaN activity, CaN phosphatase activity was assayed in the presence of recombinant AKAP 79. Briefly, recombinant AKAP 79 was expressed in E. coli as described in Carr et al., J. Biol. Chem., 267:16816-16823 (1992), incorporated herein by reference. CaN and the constitutively active truncation mutant CaN420 (a truncated, Ca^2+ /calmodulin independent constitutively active form of CaN (Perrino et al., J. Biol. Chem., in press)) were expressed in Sf9 cells and purified on calmodulin-Sepharose as described in Perrino et al., J. Biol Chem., 267:15965-15969 (1992), incorporated herein by reference. Phosphatase activity toward ^32 P RII peptide substrate was measured as described in Perrino et al., supra. CaN (30 nM), calmodulin (100 nM) and ^32 P RII peptide (22 μM) were incubated with AKAP 79 protein and AKAP 79 peptide (SEQ ID NO:1-amino acids 81-102) over the range of concentrations indicated in FIG. 1B. Calmodulin was omitted from CaN420 assays. ^32 P released from the substrate was measured in triplicate samples in three separate experiments by scintillation counting. The inhibition constant (Ki) of recombinant AKAP 79 for CaN was determined by linear regression analysis of data. Ki values for AKAP 79 peptide were estimated by determining the IC50 using a fixed substrate concentration at Km (42 μM).

[5] = biological target: AKAP 79/RII binding; assay: Scintillation proximity assay of TRX-AKAP 79/3H-RII binding; conditions: read-out: IC50 of inhibition of AKAP 79/RII binding
From the text: Initially, a thioredoxin TRX-AKAP 79 fusion protein expression plasmid was constructed. See, generally, LaVallie, et al., BIO/TECHNOLOGY 11:187-193 (1993). Briefly, a XhaI/HindIII thioredoxin fragment was subcloned into pUC 19 containing a lac Z gene and a tacZ promoter. The resulting plasmid was designated TRX F/S pUC19. In order to insert an AKAP 79 encoding sequence into TRX F/S pUC19, an NcoI site was created with an oligonucleotide (SEQ ID NO:32) having terminal SpeI and HindIII sequences. Following SpeI/HindIII digestion, the oligonucleotide was inserted into the vector and an NcoI/XhoI fragment encoding AKAP 79 was ligated in frame with the thioredoxin gene. The fusion protein was expressed in E. coli and immobilized on 96-well ScintiStrip plates (Wallac, Turbu, Finland) which contained a scintillator embedded in the solid support. […] When ^3 H-RII bound to AKAP 79, the label was brought sufficiently close to the support-embedded scintillator, resulting in emission detected in a MicroBeta scintillation counter.
The scintillation proximity assay (SPA) screening protocol described in Example 8 was employed to determine the ability of various chemicals to inhibit binding between AKAP 79 and ^3 H-RII. […] Percent binding was determined by the measuring the amount of radioactivity in each well compared to the amount of radioactivity in wells wherein only AKAP 79 and ^3 H-RII were introduced.

[6] = tested on: PKC/AKAP 79 interaction; assay: PKC overlay assay; type: binding, rabbit
Experimental: In order to determine if the 75 kDa protein identified may be the bovine homolog of AKAP 79, the PKC overlay assay was used to probe AKAP 79 and related fragments. Briefly, proteins were separated by SDS-polyacrylamide electrophoresis (SDS-PAGE) and blotted to nitrocellulose following standard protocols. Samples were blocked in Blotto [1 mg/ml bovine serum albumin (BSA), 5% dry milk in Tris-buffered saline (TBS)] and incubated for one hour at room temperature in assay buffer [TBS containing 1 mg/ml BSA, 1.2 mM calcium, 1 mM EGTA, 20 μg/ml phosphatidylserine (PS), 2 μg/ml leupeptin, 2 μg/ml pepstatin and 3 μg/ml of partially purified rabbit brain PKC]. Bound PKC was detected with monoclonal antibody M7, which recognizes both PKCα and β, following standard chemiluminescent detection methods.

[7] = tested on: PKC; assay: PKC activity assay with EGF receptor peptide substrate; type: biochemical
Experimental: In order to asses the ability of these peptides to modulate PKC activity, the following assay was performed in the presence and absence of AKAP 79 peptide fragments. PKC [50 nM dissolved in 50 mM tris-HCl (pH 7.4), 5 mM MgCl2 1.2 mM CaCl2, 1 mM DTT, 1 mM EGTA and 100 μg/ml PS] was incubated with EGF receptor peptide substrate (5 μM) at 30° C. for five minutes. Phosphorylation reaction was initiated by addition of 100 μM ^32 P-ATP (500 cpm/pmol) and the reaction allowed to proceed for ten minutes at 30° C. Aliquots of reaction mixture were removed and spotted into P81 filter paper and the reaction terminated by washing the filter paper with excess 75 mM phosphoric acid (three washes for three minutes each). After a final wash in ethanol, the p81 filters were dried and radioactivity was measured by liquid scintillation counting.

[8] = biological target: T3, CaN420 (Rattus norvegicus, UniProt P63329); assay: CaN420 phosphatase activity toward 32P RII peptide substrate; type: biochemical; conditions: calmodulin omitted
T3 construct: a truncated, Ca^2+ /calmodulin independent constitutively active form of CaN; made in house; host or cells: Sf9 cells (baculovirus)
Experimental: as §2

Substance: AKAP 79/Met159: biotinylated AKAP 79 truncation, first 159 amino terminal amino acids deleted
binding to immobilized CaN A [1]: no specific binding | recognition of immobilized RII [2]: specifically recognized

Substance: myristilated AKAP 75 peptide: myristilated peptide of amino acids 81-108 of AKAP 75 (SEQ ID NO:8) (SIKRLVTRRKRSESSKQQKPFKAKLQSE; also: myristoylated, place not given here)
reduction of PMA/ionomycin induced β-gal activity ([3]; 10 μM in the medium): 40-50%

inhibition of full-length CaN phosphatase activity [4]: not an inhibitor | IC50 [5]: 0.05 µM
Substance: Ht31 peptide: Ht31 peptide (SEQ ID NO:4), blocks anchoring protein binding to RII (DLIEEAAVSRIVDAVIEEVKAAGA) [reference compound]

effect of incubation with CaM on inhibition of PKC ([7]; CaM 15 μM, excess Ca2+): prevented inhibition | type of inhibition of PKC activity ([7]; EGF receptor peptide as substrate): mixed inhibition | IC50 ([7]; read-out: IC50 of inhibition of PKC activity): 2 µM
Substance: peptide containing residues 31-52: synthetic peptide of residues 31-52 of AKAP 79 (KASMLCFKRRKKAAKALKPKAG; UniProt P24588 31-52, looked up, fragment)
block of PKC/AKAP 79 interaction [6]: blocked

Substance: AKAP 79/Met247: biotinylated AKAP 79 truncation, first 247 amino terminal amino acids deleted
binding to immobilized CaN A [1]: no specific binding | recognition of immobilized RII [2]: specifically recognized

Substance: AKAP 79/M108: biotinylated AKAP 79 truncation, first 108 amino terminal residues deleted
recognition of immobilized RII [2]: specifically recognized

Substance: Asp-Leu-Ile-Glu-Glu-Ala-Ala-Ser-Arg-Ile-Val-Asp-Ala-Val-Ile-Glu-Gln-Val-Lys-Ala-Ala-Gly-Ala-Tyr (DLIEEAASRIVDAVIEQVKAAGAY; also: myristoylated, place not given here) [myristilated Ht31 peptide, amino acids 493-515 of the full length Ht31 protein, myristilated]
reversal of forskolin/IBMX blockade of PMA/ionomycin induced β-gal activity ([3]; 100 μM myristilated peptide): completely reversed

inhibition of full-length CaN phosphatase activity [4]: non-competitive manner | inhibition of CaN420 phosphatase activity [8]: non-competitive manner | binding to immobilized CaN A [1]: bound
Substance: AKAP 79: recombinant anchoring protein AKAP 79 expressed in E. coli

IC50 [5]: 0.001 µM
Substance: unlabeled RII: unlabeled RII regulatory subunit of PKA, reference inhibitor
